The values below come from US11442059B2, “Method for treating a chronic itch condition by administering small molecule MrgprX4 antagonists” (The Johns Hopkins University, priority 2017, dated 2022).

One data set has as its system mice. As to the kind of experiment: Acute itch behaviour after injection (scratching bouts). Format: in vivo, mouse. To be noted: for itch responses in WT versus Cluster KO animals: injection at nape or cheek; for scratching / itch elicited by injection: WT mice; for itch elicited in Cluster KO animals: Cluster KO mice.
The next data set concerns the target T1, MrgprA1 (Mus musculus, UniProt Q91WW5).
T1 construct: expressed in transfected cells; whole cells or crude membrane fraction
T1 sequence (Q91WW5 1-304): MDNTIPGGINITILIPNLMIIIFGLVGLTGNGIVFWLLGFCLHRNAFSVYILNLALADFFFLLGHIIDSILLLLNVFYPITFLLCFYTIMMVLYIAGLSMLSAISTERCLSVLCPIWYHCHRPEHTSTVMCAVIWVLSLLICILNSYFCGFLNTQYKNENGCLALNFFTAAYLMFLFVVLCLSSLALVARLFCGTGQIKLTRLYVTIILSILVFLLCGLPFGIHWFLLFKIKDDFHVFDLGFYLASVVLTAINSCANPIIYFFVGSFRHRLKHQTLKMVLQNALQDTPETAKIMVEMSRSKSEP
As to the kind of experiment: Fura 2-AM calcium imaging, EC50 and IC50 determinations, MRGPRA1 HEK293 cells. To be noted: 10 μM pre-incubated 30 minutes; 50 μM bilirubin. Format: cell-based. As for the experimental part:
(§1) Cells were imaged in calcium imaging buffer (CIB; 10 mM HEPES, 1.2 mM NaHCO3, 130 mM NaCl, 3 mM KCl, 2.5 mM CaCl2, 0.6 mM MgCl2, 20 mM glucose, and 20 mM sucrose at pH 7.4 and 290-300 mOsm). To monitor changes in intracellular [Ca^2+] ([Ca^2+]i), cells were loaded with either Fura 2-AM (HEK293 cells) or Fluo 4-AM (DRG neurons and mast cells) for 30 min in the dark at 37° C. in CIB just prior to imaging. With Fura 2-AM, emission at 510 nm was monitored from excitation at both 340 nm and 380 nm. With Fluo 4-AM, emission at 520 nm was monitored from excitation at 488 nm. Cells were identified as responding if the intracellular [Ca^2+] rose by either 50% compared to baseline or 50% compared to the [Ca^2+]i change assayed during addition of 50 mM KCl (neurons only). Damaged, detached, high-baseline, and motion-activated cells were excluded from analysis.
(§2) In initial screens, HEK293 cells stably expressing the murine G-protein alpha-subunit Gα15, a unique Gα protein that non-selectively couples a large variety of GPCRs to phospholipase C^30, were plated on poly-D-lysine-coated coverslips and transiently transfected with constructs encoding the MRGRPR of interest. 12-24 h later, cells were loaded with the Fura 2-AM. Unless otherwise specified, compounds were perfused into the imaging chamber for approximately thirty seconds after a baseline period was established. Response was then monitored at 5 s intervals for an additional 60 s.
HEK293 cells stably expressing either MRGPRA1, MRGPRX4, and MRGRPC11 were seeded in poly-D-lysine-coated 96-well plates at 10,000 cells/well. Cells were loaded with Fura 2-AM, washed twice, and maintained in CIB. Haem metabolites were freshly dissolved in DMSO in dim light and then diluted into a buffer comprised of 20 mM Tris and 150 mM NaCl at pH 8.8. Potential changes in pH were evaluated prior to each experiment. EC50 values were determined from dose-responses performed in triplicate, repeated 2-4 times. To determine potential antagonism by QWF against bilirubin, cells were treated with varying doses of QWF for 1 min in CIB prior to application of agonist.

Data set [1] concerns the target T2, MRGPRX4 (Homo sapiens, UniProt Q96LA9). As to the kind of experiment: Fura 2-AM calcium imaging, EC50 determinations, MRGPRX4 HEK293 cells. The data set is classed as cell-based. Set-up: expressed in transfected cells; whole cells or crude membrane fraction. As to conditions: 10 μM pre-incubated 30 minutes; 50 μM bilirubin. The procedure:
as §1, §2
HEK293 cells stably expressing either MRGPRA1, MRGPRX4, and MRGRPC11 were seeded in poly-D-lysine-coated 96-well plates at 10,000 cells/well. Cells were loaded with Fura 2-AM, washed twice, and maintained in CIB. Haem metabolites were freshly dissolved in DMSO in dim light and then diluted into a buffer comprised of 20 mM Tris and 150 mM NaCl at pH 8.8. Potential changes in pH were evaluated prior to each experiment. EC50 values were determined from dose-responses performed in triplicate, repeated 2-4 times. […]

The subject of a further data set is 129S1/SvImJ mice. As to the kind of experiment: SJS/TEN mouse model (daily oral gavage of causative drug). The data set is classed as in vivo. As to conditions: mouse, in vivo. The procedure: Eight-to-ten week old male mice were orally gavaged with either causative drugs (LTG, allopurinol, oxcarbazepine) suspended in saline or saline once daily. The dosage was based on milligrams per kilogram of animal's body weight as indicated (for example, LTG 50 mg kg^−1 body weight). Skin, eyes, and mucosa, survival, body weight, physical and gross appearances (particularly on the eyes, mucosa and skins) were monitored every day.
The animals were deeply anesthetized with pentobarbital and transcardially perfused with 20 ml 0.1 M cold PBS (pH 7.4) followed with 25 ml of cold 4% paraformaldehyde (PFA). Paw skin, eyelid, spleen, lymph nodes were dissected out. postfixed in 4% PFA for more than two hours, and cryoprotected in a 20% followed by 30% sucrose solution for 24 hours each at 4° C. Tissue samples were embedded in the optimal cutting temperature (OCT) and frozen before being serially cut into 20 μm sections and placed onto slides. Hematoxylin and eosin (H&E) staining was performed using standard procedures according to the manufacturer's instruction VITROVIEW™ H&E Stain Kit). To quantify amount of apoptotic cells, terminal deoxynucleotidyl transferase dUTP nick end labeling (TUNEL) assay, a method for detecting DNA fragmentation that results from apoptotic cells by labeling the terminal end of nucleic acids, was performed by following the protocol of Apo-BrdU DNA Fragmentation Assay Kit (Biovision). To estimate the total cell number in tissue, all nuclei were stained with propidium iodide. Digital photographs were captured under confocal fluorescent microscopy at x200 magnification (Zeiss LSM 700). The number of TUNEL-positive nuclei were counted and reported as a percentage over the number of total nuclei observed in the skin's epidermis layer.

Data set [2] concerns the target T2, MRGPRX4. The data set is described as follows: MrgprX4 inverse agonist assay (HTRF IP-One inositol phosphate). Format: cell-based. Set-up: expressed in transfected cells. To be noted: HEK293 cells stably expressing recombinant human MrgprX4, final assay concentration typically 10 μM. The procedure: (§3) Intracellular inositol phosphate levels were determined using a 384-well homogenous time-resolved fluorescence assay (HTRF IP-One®, CisBio International, Bagnols/Ceze, France, Cat #62IPAPEJ) as described by the manufacturer's one-step protocol. Briefly, HEK293 cells stably expressing recombinant human MrgprX4 were harvested and suspended in phenol-red free OptiMEM (ThermoFisher) and plated into 384-well assay plates (Perkin Elmer, Proxiplate-Plus® Cat #6008280) at 15,000 cells/well in a volume of 10 μL/well. These cell plates were then incubated overnight at 37° C. in a humidified CO2 incubator. Test compounds were dissolved in DMSO and were further diluted in Assay Buffer (Tris.HCl 40 mM, NaCl 300 mM, LiCl 350 mM, pH 8) and added to the cells (2 μL addition, final assay concentration typically 10 μM). In this configuration, the assay can detect agonists and inverse agonists. For detection of antagonists, test compound addition was followed by addition of bilirubin (2 μL addition, final assay concentration 100 μM). Regardless of the assay format (agonist/inverse agonist vs. antagonist) plates were then incubated for 1 h, at 37° C., followed by 30 minutes at room temperature. Lysis/detection reagents (6 uL/well) were then added and plates incubated for 1 h at room temperature before reading on an HTRF compatible reader such as a Perkin Elmer EnVision® or BMG Pherastar®.
On the technique in general: In TR-FRET formats the signal depends on donor and acceptor labels being close together.

The target in data set [3] is T2, MRGPRX4. The data set is described as follows: MrgprX4 antagonist assay vs bilirubin (HTRF IP-One inositol phosphate). Format: cell-based. Details: expressed in transfected cells. As to conditions: blockade of bilirubin (100 μM) induced signal; test compound typically 10 μM. The procedure: as §3

“Also recorded” adds a separate entry of the source. Starred links: 1 amine or outer side, 2 acyl side, 3 side chain; linkers in the order of their positions; H or OH if unused. Positions of bridges follow the written chain, without caps; N, C: chain ends. Non-standard residues stand in square brackets, D forms with d. Residues, ends and D or L forms follow the SMILES beside them. X1 = CC(=O)NC(C(=O)OC(C(C)C)C(N[*:1])C(=O)[*:2])C(O)C(C)C; PhLac = O=C(O)[CH](O)Cc1ccccc1; NMeT = CN[CH](C(=O)O)[CH](C)O; NMeA = CN[CH](C)C(=O)O; NMeDha = C=C(NC)C(=O)O

T2 sequence (Q96LA9 whole entry): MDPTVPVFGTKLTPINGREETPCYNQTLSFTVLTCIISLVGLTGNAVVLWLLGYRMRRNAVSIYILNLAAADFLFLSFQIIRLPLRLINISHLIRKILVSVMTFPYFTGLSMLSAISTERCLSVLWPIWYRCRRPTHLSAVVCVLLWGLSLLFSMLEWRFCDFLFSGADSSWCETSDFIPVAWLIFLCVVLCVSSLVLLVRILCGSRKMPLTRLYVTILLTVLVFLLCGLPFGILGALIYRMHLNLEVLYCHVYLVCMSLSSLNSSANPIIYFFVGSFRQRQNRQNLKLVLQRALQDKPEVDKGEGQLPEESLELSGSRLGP

Take `C[C@@H](NC(=O)[C@@H](N)Cc1ccc(O)cc1)C(=O)NCC(=O)N(C)[C@@H](Cc1ccccc1)C(=O)NCCO` [DAMGO]: in the data set on mice, the “itch responses in WT versus Cluster KO animals” value is reported as “comparable itch responses”.

With `C=C1C(=O)NC(C)C(=O)N(C)C(C)C(=O)NC(C(OC(=O)C(NC(C)=O)C(O)C(C)C)C(C)C)C(=O)N(C)C(C(C)OC)C(=O)OC(C)C(NC(C)=O)C(=O)OC(Cc2ccccc2)C(=O)N1C` (stereo not shown) [YM-254890] (Ac-T[PhLac][NMeDha]A[NMeA][X1][NMeT](Me); ester 1-C; configuration not given here), the “effect on bilirubin-induced calcium responses, MRGPRA1” value on MrgprA1 was “abolished”. Further, at MRGPRX4 [1], the “effect on bilirubin-induced calcium responses, MRGPRX4” value is “inhibited”.

On to `Oc1ncnc2[nH]ncc12` [allopurinol], for which the eye manifestation result in the data set on 129S1/SvImJ mice was “can also induce eye manifestation”.

For `C=CC1=C(C)/C(=C/C2=NC(=C\c3[nH]c(/C=C4\NC(=O)C(C)=C4C=C)c(C)c3CCC(=O)O)/C(CCC(=O)O)=C2C)NC1=O` [biliverdin], the “scratching / itch elicited by injection” value with mice is “did not induce scratching”.

As for `O=C(O)COCCN1CCN(C(c2ccccc2)c2ccc(Cl)cc2)CC1` (stereo not shown) [cetirizine], the “effect on bilirubin-induced scratching” value in the data set with mice (30 mg/kg, i.p., thirty minutes prior to bilirubin) is recorded as “failed to temper scratching behavior”.

With `Cc1c(C(=O)NCc2ccccc2C(F)(F)F)ncn1Cc1ccc(Cl)cc1` [compound 1], the “Inverse Agonist Activity” value at MRGPRX4 [2] is recorded as “++++ (an activity of at least 3 standard deviations below baseline)”. Further, on MRGPRX4 [3], the “Antagonist Activity” value is listed as “++++ (a blockade of bilirubin induced signal of at least 85%)”.

As to `Cc1nc(-c2ccnn2Cc2ccc(Cl)cc2)[nH]c1-c1ccccc1` [compound 2], the “Inverse Agonist Activity” value on MRGPRX4 [2] is reported as “++++ (an activity of at least 3 standard deviations below baseline)”. Also, at MRGPRX4 [3], the “Antagonist Activity” value is recorded as “++++ (a blockade of bilirubin induced signal of at least 85%)”.

For `O=C(NCc1cc2ccccc2[nH]1)c1cc(-c2ccccn2)nc2ccc(Br)cc12` [compound 3], the “Inverse Agonist Activity” value at MRGPRX4 [2] is listed as “+++ (an activity of from 2 standard deviations to less than 3 standard deviations below baseline)”. Further, the “Antagonist Activity” value on MRGPRX4 [3] is “++++ (a blockade of bilirubin induced signal of at least 85%)”.

With `Nc1nc2ccccc2n1CCOc1ccccc1Cl` [compound 4], the “Inverse Agonist Activity” value on MRGPRX4 [2] is “+++ (an activity of from 2 standard deviations to less than 3 standard deviations below baseline)”. On MRGPRX4 [3], the “Antagonist Activity” value was “+++ (a blockade of bilirubin induced signal of from 70% to less than 85%)”.

As for `C=CC1=C(C)c2cc3[n-]c(cc4[n-]c(cc5nc(cc1n2)C(C)=C5C=C)c(C)c4CCC(=O)O)c(CCC(=O)O)c3C.O.[Fe+2]` [hematin], in the data set with mice, the “itch elicited in Cluster KO animals” value is recorded as “absent” and the “scratching / itch elicited by injection” value was “elicited itch”.

As for `CN1CC[C@]23c4c5ccc(O)c4O[C@H]2[C@@H](O)C=C[C@H]3[C@H]1C5` [morphine], the “itch responses in WT versus Cluster KO animals” value in the data set on mice is reported as “comparable itch responses”.

`CCC1=C(C)C(Cc2[nH]c(Cc3[nH]c(CC4NC(=O)C(C)=C4CC)c(C)c3CCC(=O)O)c(CCC(=O)O)c2C)NC1=O` (stereo not shown) [urobilinogen]: the “scratching / itch elicited by injection” value in the data set with mice is “able to stimulate scratching behavior”.

FMRF: an MRGPRA1 agonist: in the data set on mice, the “scratching / itch elicited by injection” value is given as “caused itch”.

In the case of lysophosphatidic acid [LPA], the “itch responses in WT versus Cluster KO animals” value in the data set with mice is listed as “comparable itch responses”.

As for stercobilin, in the data set with mice, the “itch elicited in Cluster KO animals” value is given as “absent” and the “scratching / itch elicited by injection” value is on record as “elicited itch; also recorded: able to stimulate scratching behavior”.
